Data from patent US11549142B2, “CETP inhibitors for therapeutic use” (Hoffmann-La Roche Inc., priority 2013, dated 2023).

Test system: patients recently hospitalized for an Acute Coronary Syndrome (ACS)
Assay: dal-OUTCOMES phase III trial with pharmacogenomic (GWAS) analysis of cardiovascular events by ADCY9 genotype
Format: in vivo, human
Design: key to Predicted response: R: Responsive; PR: Partial Responsive; NR: Non Responsive
Method: The dalcetrapib mortality and morbidity trial (dal-OUTCOMES) was a double-blind, randomized, placebo-controlled, parallel group, multi-centre study in stable CHD patients recently hospitalized for acute coronary syndrome (ACS). The study was conducted to test the hypothesis that CETP inhibition will reduce the risk of recurrent cardiovascular events in patients with recent ACS by raising levels of HDL-C through CETP inhibition. Eligible patients entered a single-blind placebo run-in period of approximately 4 to 6 weeks to allow for patients to stabilize and for completion of planned revascularization procedures. At the end of the run-in period, eligible patients in stable condition were randomized in a 1:1 ratio to 600 mg of dalcetrapib or placebo on top of evidence-based medical care for ACS. Dalcetrapib is an inhibitor of cholesterol-ester transfer protein (CETP). […] The trial was interrupted in May 2012 by the DSMB on grounds of futility.
Dal-OUTCOMES trial (NC20971) was a double blind, randomized, placebo-controlled, parallel group, multi-center, phase III study to assess the safety and efficacy of the CETP inhibitor dalcetrapib in patients recently hospitalized for an Acute Coronary Syndrome (ACS). At time of the interim analysis the study included 15871 randomized patients, distributed over two treatment arms: placebo (7933 patients) and dalcetrapib (600 mg daily; 7938 patients). […] The dal-OUTCOMES study details can be found in G. Schwartz et al., N. Engl. J. Med. 367; 22, 2012.\
Whole genome analysis was performed in GLP-environment at the Beaulieu-Saucier Pharmacogenomics Centre. The Infinium® HumanOmni25Exome-8v1_A BeadChip (Illumina, San Diego, Calif.) including 2,567,845 genomic markers was used and processed according to the manufacturer's specifications. Approximately 200 ng of genomic DNA was whole-genome amplified, fragmented, and hybridized to locus-specific probes bound to the surface of each BeadChip. DNA was genotyped using a fluorescently labelled single base extension assay. BeadChips were scanned and analyzed using the Illumina® iScan Reader. Infinium® process controls were monitored and all results were within manufacturer's specifications. Scanned images were analyzed using Illumina's GenomeStudio® version 2011.1 with the GenTrain 2.0 cluster algorithm, using a No-Call threshold of 0.15, without manual cluster adjustment and using the manufacturer's Illumina® HumanOmni25Exome-8v1_A cluster file. […] Three genotyping files in PLINK format generated by GenomeStudio® were combined and transformed to binary PLINK format.
Genotyping completion rate for samples and SNPs was set to 98%. SNPs with genotyping plate bias (based on the 96 well plates used to dilute DNA samples) were flagged but not removed as the effect of genetic ancestry could not be excluded. Pairwise IBD was used to conduct close familial relationship checks. We flagged and removed all but one pair-member of related pairs and sample duplicates (IBS2*ratio>0.80) based on a selection of uncorrelated SNPs (r^2<0.1). The pairwise IBS matrix was used as a distance metric to identify cryptic relatedness among samples and sample outliers by multi-dimensional scaling (MDS). The first two MDS components of each subject were plotted including the genotypes of HapMap CEU, JPT-CHB, and YRI data (keeping only founder individuals). Outliers from the main Caucasian cluster were flagged and removed by k-nearest neighbour. (Supplementary FIG. 1) The scree plot and the cumulative explained variance were computed using the smartpca program of the EIGENSOFT suite (version 3.0). Options used were a numoutlieriter (maximum number of outlier removal iterations) of 0 (turned off) and altnormstyle (normalization formula) equal to NO. ^4 (Supplementary FIG. 2)
A statistical analysis plan was developed at the Beaulieu-Saucier Pharmacogenomics Centre and the final version approved prior to genotyping completion in October 2012. […]

`CCC(CC)CC1(C(=O)Nc2ccccc2SC(=O)C(C)C)CCCCC1` [dalcetrapib, thioisobutyric acid S-(2-{[1-(2-ethyl-butyl)-cyclohexanecarbonyl]-amino}-phenyl) ester] was tested, and the Predicted response (rs8061182 genotype AA) was “R”, the “HR for time to events, dalcetrapib treatment arm versus placebo arm” value (rs8061182 genotype AG) was 0.99 and the Predicted response (rs8061182 genotype AG) was “PR”. For the same compound, the “HR for time to events, dalcetrapib treatment arm versus placebo arm” value (rs8061182 genotype GG) was 1.55, the Predicted response (rs8061182 genotype GG) was “NR” and the “HR (95% CI) for time to events, dalcetrapib treatment arm only, genotype comparison” value (shortened to “HR (95% CI) for time to events”) (rs11647828 AG vs AA) was 0.74 (0.6, 0.92). For the same compound, the “HR (95% CI) for time to events” value (rs11647828 GG vs AA) was 0.46 (0.33, 0.63), the “HR for time to events, dalcetrapib treatment arm versus placebo arm” value (rs11647828 genotype AA) was 1.33 and the Predicted response (rs11647828 genotype AA) was “NR”. The “HR for time to events, dalcetrapib treatment arm versus placebo arm” value (rs11647828 genotype AG) was 0.97, the Predicted response (rs11647828 genotype AG) was “PR” and the “HR for time to events, dalcetrapib treatment arm versus placebo arm” value (rs11647828 genotype GG) was 0.61. The Predicted response (rs11647828 genotype GG) was “R”, the “HR (95% CI) for time to events” value (rs12595857 AG vs AA) was 0.7 (0.57, 0.87) and the “HR (95% CI) for time to events” value (rs12595857 GG vs AA) was 0.45 (0.33, 0.62). For the same compound, the “HR for time to events, dalcetrapib treatment arm versus placebo arm” value (rs12595857 genotype AA) was 1.27, the Predicted response (rs12595857 genotype AA) was “NR” and the “HR for time to events, dalcetrapib treatment arm versus placebo arm” value (rs12595857 genotype AG) was 0.95. The Predicted response (rs12595857 genotype AG) was “PR”, the “HR for time to events, dalcetrapib treatment arm versus placebo arm” value (rs12595857 genotype GG) was 0.7 and the Predicted response (rs12595857 genotype GG) was “R”. The “HR (95% CI) for time to events” value (rs12935810 AA vs GG) was 1.87 (1.42, 2.48), the “HR (95% CI) for time to events” value (rs12935810 GA vs GG) was 1.3 (1.02, 1.65) and the “HR for time to events, dalcetrapib treatment arm versus placebo arm” value (rs12935810 genotype AA) was 1.28. The Predicted response (rs12935810 genotype AA) was “NR”, the “HR for time to events, dalcetrapib treatment arm versus placebo arm” value (rs12935810 genotype GA) was 1.03 and the Predicted response (rs12935810 genotype GA) was “NR”. The “HR for time to events, dalcetrapib treatment arm versus placebo arm” value (rs12935810 genotype GG) was 0.79, the Predicted response (rs12935810 genotype GG) was “R” and the “HR (95% CI) for time to events” value (rs13337675 AG vs AA) was 0.84 (0.68, 1.03). For the same compound, the “HR (95% CI) for time to events” value (rs13337675 GG vs AA) was 0.7 (0.43, 1.14), the “HR for time to events, dalcetrapib treatment arm versus placebo arm” value (rs13337675 genotype AA) was 1.07 and the Predicted response (rs13337675 genotype AA) was “NR”. The “HR for time to events, dalcetrapib treatment arm versus placebo arm” value (rs13337675 genotype AG) was 0.89, the Predicted response (rs13337675 genotype AG) was “PR” and the “HR for time to events, dalcetrapib treatment arm versus placebo arm” value (rs13337675 genotype GG) was 1.03. For the same compound, the Predicted response (rs13337675 genotype GG) was “PR”, the “HR (95% CI) for time to events” value (rs17136707 AG vs AA) was 0.62 (0.47, 0.81) and the “HR (95% CI) for time to events” value (rs17136707 GG vs AA) was 0.16 (0.02, 1.15). For the same compound, the “HR for time to events, dalcetrapib treatment arm versus placebo arm” value (rs17136707 genotype AA) was 1.06, the Predicted response (rs17136707 genotype AA) was “NR” and the “HR for time to events, dalcetrapib treatment arm versus placebo arm” value (rs17136707 genotype AG) was 0.8. For the same compound, the Predicted response (rs17136707 genotype AG) was “PR”, the “HR for time to events, dalcetrapib treatment arm versus placebo arm” value (rs17136707 genotype GG) was 0.37 and the Predicted response (rs17136707 genotype GG) was “R”. For the same compound, the “HR (95% CI) for time to events” value (rs74702385 AA vs GG) was 0.14 (0.02, 1), the “HR (95% CI) for time to events” value (rs74702385 GA vs GG) was 0.63 (0.48, 0.83) and the “HR for time to events, dalcetrapib treatment arm versus placebo arm” value (rs74702385 genotype AA) was 0.26. The Predicted response (rs74702385 genotype AA) was “R”, the “HR for time to events, dalcetrapib treatment arm versus placebo arm” value (rs74702385 genotype GA) was 0.84 and the Predicted response (rs74702385 genotype GA) was “R”. The “HR for time to events, dalcetrapib treatment arm versus placebo arm” value (rs74702385 genotype GG) was 1.05, the Predicted response (rs74702385 genotype GG) was “NR” and the “HR (95% CI) for time to events” value (rs111590482 AG vs AA) was 0.64 (0.49, 0.84). The “HR (95% CI) for time to events” value (rs111590482 GG vs AA) was 0.15 (0.02, 1.1), the “HR for time to events, dalcetrapib treatment arm versus placebo arm” value (rs111590482 genotype AA) was 1.04 and the Predicted response (rs111590482 genotype AA) was “NR”. The “HR for time to events, dalcetrapib treatment arm versus placebo arm” value (rs111590482 genotype AG) was 0.85, the Predicted response (rs111590482 genotype AG) was “R” and the “HR for time to events, dalcetrapib treatment arm versus placebo arm” value (rs111590482 genotype GG) was 0.26. For the same compound, the Predicted response (rs111590482 genotype GG) was “R”.
